{
  "source": "paper PMC8113459",
  "about": "“Selective inhibition of cullin 3 neddylation through covalent targeting DCN1 protects mice from acetaminophen-induced liver toxicity” (Nature Communications, 2021)",
  "key": {"[1]": {"experiment": "Pharmacokinetics: concentrations in mouse plasma and liver", "assay_type": "in vivo", "conditions": "for concentration at 1 h / concentration at 3 h / concentration at 6 h / concentration at 24 h: male, C57BL/6, mouse, ip", "protocol": "Supplementary Table 2A. Concentrations of DI-1548 in mouse Plasma and liver after the C57BL/6 male mice were treated with a single dose of DI-1548 at 25 mg/kg via intraperitoneal (IP) injection. BLQ: below the limit of quantification.\nTime point (h) Plasma (ng /mL) Liver (ng /g)\nSupplementary Table 2B. Concentrations of DI-1859 in mouse Plasma and liver after the C57BL/6 male mice were treated with a single dose of DI-1859 at 25 mg/kg via intraperitoneal (IP) injection. BLQ:\nTime point (h) Pl asma (ng /mL) Liver (ng /g) […]"}, "neddylation of cullin 3 [2]": {"tested_on": "neddylation of cullin 3", "experiment": "Western blot, cullin 3 neddylation in U2OS cells", "assay_type": "cell-based, human", "protocol": "(§1) Western blotting was performed as described previously. Treated cells were lysed by RIPA buffer supplemented with protease inhibitor. The expression level of indicated proteins was examined by immunoblotting analysis and GAPDH was used as the loading control. Antibodies were purchased commercially: cullin 1 (sc-17775, 1:500 dilution) and cullin 2 (sc-166506, 1:500 dilution) from Santa Cruz Biotech (Santa Cruz, CA); cullin 4A (PA5-14542, 1:1000 dilution), cullin 4B (PA5-50647, 1:1000 dilution), and DCN3 (DCUN1D3, PA5-44000, 1:1000 dilution) from Thermo Fisher Scientific (Wayne, MI); cullin 3 (2759, 1:1000), NRF2 (12721, 1:1000 dilution), HO-1 (70081, 1:1000 dilution), and Bim (2819, 1:1000 dilution) from Cell Signaling Technology (Boston, MA); DCN1 (GWB-E3D700, 1:1000 dilution) from GenWay Biotech (San Diego, CA); and cullin 5 (A302-173A, 1:500 dilution) from Bethyl Labs (Montgomery, TX). Results are representative of two independent experiments."}, "DCN3 protein": {"biological_target": "DCN3 protein (Homo sapiens, UniProt Q8IWE4)", "sequence (Q8IWE4 86-304 limits assumed)": "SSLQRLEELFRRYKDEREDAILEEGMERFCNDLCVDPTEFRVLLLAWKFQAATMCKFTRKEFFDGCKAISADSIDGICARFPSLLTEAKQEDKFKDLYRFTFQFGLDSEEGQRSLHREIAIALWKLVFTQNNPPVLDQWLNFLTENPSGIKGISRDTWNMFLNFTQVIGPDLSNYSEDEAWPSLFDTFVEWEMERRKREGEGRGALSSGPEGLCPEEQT", "experiment": "Intact-protein mass spectrometric analysis, Method B (DCN3)", "assay_type": "binding", "conditions": "3 h incubation", "protocol": "Method B: Recombinant DCN1 or DCN3 protein (100 nM in 25 mM Tris 7.5, 200 mM NaCl, 1 mM DTT buffer) was incubated with 1.2-fold excess of the DCN1 inhibitors at 37 °C for 10 min, 1 h, or 3 h. Following incubation, the protein was analyzed by LC–MS (Agilent Q-TOF 6545) under the following conditions: fragmentor voltage, 300 V; skimmer voltage, 75 V; nozzle voltage, 100 V; sheath gas temperature, 350 °C; and drying gas temperature, 325 °C. MassHunter Qualitative Analysis software (Agilent) was used to analyze the data. Intact protein masses were obtained using the maximum entropy deconvolution algorithm. The mass spectrometry data in Supplementary Figs. 14–17 were generated by Method B."}, "[3]": {"tested_on": "neddylation of cullin 1, 2, 4A, 4B, and 5", "experiment": "Western blot, neddylation of other cullin members", "assay_type": "cell-based, human", "protocol": "as §1"}, "neddylation of cullin 3 [4]": {"tested_on": "neddylation of cullin 3", "experiment": "Western blot, cullin 3 neddylation in cells of different tissue types (U2OS, THLE2, MDA-MB-231, KYSE70, HCT116)", "assay_type": "cell-based, human", "protocol": "as §1"}, "DCN1": {"biological_target": "DCN1 (Homo sapiens, UniProt Q96GG9)", "sequence (Q96GG9 58-259 limits assumed)": "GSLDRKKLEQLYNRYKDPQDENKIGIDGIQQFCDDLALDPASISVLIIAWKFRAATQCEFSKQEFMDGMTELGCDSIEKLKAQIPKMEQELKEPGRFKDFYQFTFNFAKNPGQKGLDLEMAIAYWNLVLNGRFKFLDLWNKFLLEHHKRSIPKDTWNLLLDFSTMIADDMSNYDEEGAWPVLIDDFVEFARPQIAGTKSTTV", "experiment": "Intact-protein mass spectrometric analysis of covalent complex formation, Method A", "assay_type": "binding", "conditions": "for Percentage of the formation of covalent complex with DCN1 protein: 37 °C", "from_the_text": "MassHunter Qualitative Analysis software (Agilent) was used to analyze the data. Intact protein masses were obtained using the maximum entropy deconvolution algorithm. The mass spectrometry data in Supplementary Figs. 1–11 were generated by Method A."}, "[5]": {"conditions": "C57BL/6 male mice, 25 mg/kg IP, 6 h"}, "[6]": {"conditions": "C57BL/6 male mice, 25 mg/kg IP, 24 h"}},
  "note": "Values joined by “and” are separate entries in the source; they are usually repeats but may differ in a detail not shown here. Equal entries are not always repeated. Where two headings read alike, the source gives them in different places.",
  "data": [
    {"smiles": "C=C(CN1CCOCC1)C(=O)NC[C@@H](NC(=O)[C@H](Cc1nc2ccc(C(C)C)cc2s1)NC(=O)CC)C1CCCCC1", "note": "[DI-1548]", "values": [
      {"measurement": "time by which the compounds were cleared from systemic circulation", "setting": "[1]; 25 mg/kg IP", "result": "< 3", "unit": "h"},
      {"measurement": "Liver concentration", "setting": "[1]; C57BL/6 male mice, 25 mg/kg IP, 3 h", "result": "BLQ"},
      {"measurement": "Liver concentration", "setting": "[1]; [5]", "result": "BLQ"},
      {"measurement": "Plasma concentration", "setting": "[1]; [5]", "result": "BLQ"},
      {"measurement": "Liver concentration", "setting": "[1]; [6]", "result": "BLQ"},
      {"measurement": "Plasma concentration", "setting": "[1]; [6]", "result": "BLQ"},
      {"measurement": "concentration at 1 h", "setting": "[1]; liver, 25 mg/kg, C57BL/6 male mice, 25 mg/kg IP, 1 h, read-out: Liver concentration", "result": "783 ± 336", "unit": "ng/g"},
      {"measurement": "concentration at 1 h", "setting": "[1]; liver, 25 mg/kg, mouse liver, IP 25mg/kg, 1h, mean of 3 mice, read-out: Concentration in mouse liver, MEAN", "result": 783, "unit": "ng/g"},
      {"measurement": "concentration at 3 h", "setting": "[1]; liver, 25 mg/kg, mouse liver, IP 25mg/kg, 3h, mean of 3 mice, read-out: Concentration in mouse liver, MEAN", "result": 3.32, "unit": "ng/g"},
      {"measurement": "concentration at 3 h", "setting": "[1]; liver, 25 mg/kg, mouse liver, IP 25mg/kg, 3h, single animals, read-out: Concentration in mouse liver, individual mice 1, 2, 3", "result": 3.8, "unit": "ng/g"},
      {"measurement": "concentration at 6 h", "setting": "[1]; liver, 25 mg/kg, mouse liver, IP 25mg/kg, 6h, mean of 3 mice, read-out: Concentration in mouse liver, MEAN", "result": 2.37, "unit": "ng/g"},
      {"measurement": "concentration at 6 h", "setting": "[1]; liver, 25 mg/kg, mouse liver, IP 25mg/kg, 6h, single animals, read-out: Concentration in mouse liver, individual mice 1, 2, 3", "result": 2.47, "unit": "ng/g"},
      {"measurement": "concentration at 24 h", "setting": "[1]; liver, 25 mg/kg, mouse liver, IP 25mg/kg, 24h, mean, read-out: Concentration in mouse liver, MEAN", "result": 1.22, "unit": "ng/g"},
      {"measurement": "concentration at 24 h", "setting": "[1]; liver, 25 mg/kg, mouse liver, IP 25mg/kg, 24h, single animals, read-out: Concentration in mouse liver, individual mice 1, 2, 3", "result": 1.22, "unit": "ng/g"},
      {"measurement": "concentration at 1 h", "setting": "[1]; plasma, 25 mg/kg, C57BL/6 male mice, 25 mg/kg IP, 1 h, read-out: Plasma concentration", "result": "1830 ± 319", "unit": "ng/mL"},
      {"measurement": "concentration at 3 h", "setting": "[1]; plasma, 25 mg/kg, C57BL/6 male mice, 25 mg/kg IP, 3 h, read-out: Plasma concentration", "result": "4.5 ± 3.6", "unit": "ng/mL"},
      {"measurement": "concentration at 1 h", "setting": "[1]; plasma, 25 mg/kg, mouse plasma, IP 25mg/kg, 1h, mean of 3 mice, read-out: Concentration in mouse plasma, MEAN", "result": 1830, "unit": "ng/mL"},
      {"measurement": "concentration at 1 h", "setting": "[1]; plasma, 25 mg/kg, mouse plasma, IP 25mg/kg, 1h, single animals, read-out: Concentration in mouse plasma, individual mice 1, 2, 3", "result": 1820, "unit": "ng/mL"},
      {"measurement": "concentration at 3 h", "setting": "[1]; plasma, 25 mg/kg, mouse plasma, IP 25mg/kg, 3h, mean of 3 mice, read-out: Concentration in mouse plasma, MEAN", "result": 4.47, "unit": "ng/mL"},
      {"measurement": "concentration at 6 h", "setting": "[1]; plasma, 25 mg/kg, mouse plasma, IP 25mg/kg, 6h, mean (only one mouse above the limit of quantification), read-out: Concentration in mouse plasma, MEAN", "result": 1.12, "unit": "ng/mL"},
      {"measurement": "concentration at 6 h", "setting": "[1]; plasma, 25 mg/kg, mouse plasma, IP 25mg/kg, 6h, single animals, limit of quantification 1 ng/mL, read-out: Concentration in mouse plasma, individual mice 1, 2, 3", "result": 1.12, "unit": "ng/mL"},
      {"measurement": "concentration at 24 h", "setting": "[1]; plasma, 25 mg/kg, mouse plasma, IP 25mg/kg, 24h, single animals, limit of quantification 1 ng/mL, read-out: Concentration in mouse plasma, individual mice 1, 2, 3", "result": "< 1", "unit": "ng/mL"},
      {"measurement": "Concentration in mouse liver, individual mice 1, 2, 3", "setting": "[1]; mouse liver, IP 25mg/kg, 1h, single animals, 25 mg/kg", "result": "766.08 ng/g and 455.81 ng/g and 1128.06 ng/g"},
      {"measurement": "Concentration in mouse liver, individual mice 1, 2, 3", "setting": "[1]; mouse liver, IP 25mg/kg, 3h, single animals, 25 mg/kg", "result": "2.91 ng/g and 3.26 ng/g"},
      {"measurement": "Concentration in mouse liver, individual mice 1, 2, 3", "setting": "[1]; mouse liver, IP 25mg/kg, 6h, single animals, 25 mg/kg", "result": "2.85 ng/g and 1.80 ng/g"},
      {"measurement": "Concentration in mouse plasma, individual mice 1, 2, 3", "setting": "[1]; mouse plasma, IP 25mg/kg, 1h, single animals, 25 mg/kg", "result": "2146.60 ng/mL and 1507.85 ng/mL"},
      {"measurement": "Concentration in mouse plasma, individual mice 1, 2, 3", "setting": "[1]; mouse plasma, IP 25mg/kg, 3h, single animals, 25 mg/kg", "result": "2.23 ng/mL and 8.63 ng/mL and 2.55 ng/mL"},
      {"measurement": "Concentration in mouse plasma, individual mice 1, 2, 3", "setting": "[1]; mouse plasma, IP 25mg/kg, 6h, single animals, limit of quantification 1 ng/mL, 25 mg/kg", "result": "<1", "unit": "ng/mL"},
      {"measurement": "Concentration in mouse plasma, individual mice 1, 2, 3", "setting": "[1]; mouse plasma, IP 25mg/kg, 24h, single animals, limit of quantification 1 ng/mL", "result": "<1", "unit": "ng/mL"},
      {"measurement": "concentration as low as which cullin 3 neddylation is inhibited", "setting": "neddylation of cullin 3 [2]; 24 h, Fig. 1c", "result": "≤ 1", "unit": "nM"},
      {"measurement": "potency in inhibition of cullin 3 neddylation compared with DI-591", "setting": "neddylation of cullin 3 [2]; 24 h, Fig. 1c", "result": "much more potent than DI-591"},
      {"measurement": "times more potent than DI-591 in inhibition of cullin 3 neddylation", "setting": "neddylation of cullin 3 [2]; 24 h, Fig. 1c", "result": "~ 1000 times"},
      {"measurement": "time within which the neddylation of cullin 3 is effectively inhibited", "setting": "neddylation of cullin 3 [2]; U2OS, Fig. 6c", "result": "≤ 5", "unit": "min"},
      {"measurement": "covalent complex formation with DCN3", "setting": "DCN3 protein", "result": "fail to form any detectable complex"},
      {"measurement": "effect on the neddylation of cullin 1", "setting": "[3]; U2OS, treatment time up to 48 h", "result": "no effect"},
      {"measurement": "selectivity in inhibition of the neddylation of cullin 3 over other cullin members", "setting": "[3]; a number of cell lines", "result": "> 1000 fold and 1000 fold"},
      {"measurement": "effect on the neddylation of cullin 1, 2, 4A, 4B, and 5", "setting": "[3]; concentrations up to 1000 nM", "result": "no obvious effect"},
      {"measurement": "concentration achieving profound inhibition of the neddylation of cullin 3", "setting": "neddylation of cullin 3 [4]", "result": "1 to 3", "unit": "nM"},
      {"measurement": "concentration as low as which the level of neddylated cullin 3 is significantly reduced", "setting": "neddylation of cullin 3 [4]", "result": "≤ 0.3", "unit": "nM"},
      {"measurement": "covalent complex formation / reaction kinetics with DCN1 protein (in words)", "setting": "DCN1", "result": "very fast covalent complex formation"},
      {"measurement": "Percentage of the formation of covalent complex with DCN1 protein", "setting": "DCN1; 10 min incubation, 1.2-fold excess inhibitor", "result": 100, "unit": "%"},
      {"measurement": "Percentage of the formation of covalent complex with DCN1 protein", "setting": "DCN1; 60 min (1 h) incubation", "result": 100, "unit": "%"},
      {"measurement": "Percentage of the formation of covalent complex with DCN1 protein", "setting": "DCN1; 180 min (3 h) incubation", "result": 100, "unit": "%"}
    ]}
  ]
}
